# Measurements: ChEMBL document CHEMBL6182876, “Design, synthesis and preliminary structure-activity relationship of 2-iminothiazolidine-4-one derivatives against Schistosoma japonicum in vitro and in vivo” (Eur J Med Chem, 2025)
# Active and inactive are the calls of the source. No cut-off for these calls is given here.
# Columns and labels:
# Schistosoma japonicum [1] = assay: Anti-schistosomal activity against male adult Schistosoma japonicum assessed as surface destabilization at 25 uM measured for 72 hrs by SEM analysis; type: functional, organism-based
# Schistosoma japonicum [2] = assay: Anti-schistosomal activity against adult Schistosoma japonicum assessed as worm mortality at 100 uM measured at 24 hrs relative to control; type: functional
# Schistosoma japonicum [3] = assay: Anti-schistosomal activity against adult Schistosoma japonicum assessed as muscle contractions at 50 uM incubated for 1 to 72 hrs by optical microscopic analysis; type: functional, organism-based; conditions: time 1-72 hrs
# Schistosoma japonicum [4] = assay: Anti-schistosomal activity against adult Schistosoma japonicum assessed as worm mortality at 100 uM measured at 4 hrs relative to control; type: functional
# Schistosoma japonicum [5] = assay: Anti-schistosomal activity against male adult Schistosoma japonicum assessed as complete loss of sucker-associated muscular architecture at 25 uM measured for 72 hrs by SEM analysis; type: functional, organism-based
# [6] = Acute toxicity in ICR mouse assessed as BUN level at 1144 mg/kg, po administered for 7 days; type: organism-based; conditions: in vivo, 168 h, time 7 day
# Schistosoma japonicum [7] = assay: Anti-schistosomal activity against adult Schistosoma japonicum assessed as darkened body pigmentation at 50 uM incubated for 1 to 72 hrs by optical microscopic analysis; type: functional, organism-based; conditions: time 1-72 hrs
# Schistosoma japonicum [8] = assay: Anti-schistosomal activity against adult Schistosoma japonicum assessed as collapse of sucker musculature at 25 uM measured for 72 hrs by SEM analysis; type: functional, organism-based
# Schistosoma japonicum [9] = assay: Anti-schistosomal activity against male adult Schistosoma japonicum assessed as appearance of sensory papillae at 25 uM measured for 72 hrs by SEM analysis; type: functional, organism-based
# Schistosoma japonicum [10] = assay: Anti-schistosomal activity against male adult Schistosoma japonicum assessed as appearance of degradation of subtegumental matrix at 25 uM measured for 72 hrs by SEM analysis; type: functional, organism-based
# [11] = Acute toxicity in ICR mouse assessed as AST level at 1144 mg/kg, po administered for 7 days; type: organism-based; conditions: in vivo, 168 h, time 7 day
# [12] = Acute toxicity in ICR mouse assessed as liver damage at 1144 mg/kg, po administered for 7 days by H and E staining based analysis; type: organism-based; conditions: in vivo, 168 h, time 7 day
# [13] = Acute toxicity in po dosed ICR mouse assessed as lethal dose; type: organism-based; conditions: in vivo
# Schistosoma japonicum [14] = assay: Anti-schistosomal activity against juvenile Schistosoma japonicum infected in ICR mouse assessed as reduction in worm burden at 25 mg/kg, ip administered for 7 days; type: functional; parameters: scale not given: the % may be the effect or the level left; conditions: time 7 day
# Schistosoma japonicum [15] = assay: Anti-schistosomal activity against juvenile Schistosoma japonicum infected in ICR mouse assessed as accumulation of inflammatory cells at 25 mg/kg, ip administered for 7 days; type: functional, organism-based; conditions: time 7.0 day
# Schistosoma japonicum [16] = assay: Anti-schistosomal activity against adult Schistosoma japonicum assessed as disintegration of tegument at 25 uM measured for 72 hrs by SEM analysis; type: functional, organism-based
# [17] = Acute toxicity in ICR mouse assessed as ALT level at 1144 mg/kg, po administered for 7 days; type: organism-based; conditions: in vivo, 168 h, time 7 day
# Schistosoma japonicum [18] = assay: Anti-schistosomal activity against male adult Schistosoma japonicum assessed as loss of tegumental architecture at 25 uM measured after 72 hrs by SEM analysis; type: functional, organism-based
# Schistosoma japonicum [19] = assay: Anti-schistosomal activity against juvenile Schistosoma japonicum infected in ICR mouse assessed as number of eggs in hepatocyte at 25 mg/kg, ip administered for 7 days; type: functional, organism-based; conditions: time 7.0 day
# Schistosoma japonicum [20] = assay: Anti-schistosomal activity against female adult Schistosoma japonicum assessed as loss of tegumental architecture at 25 uM measured after 72 hrs by SEM analysis; type: functional, organism-based
# Schistosoma japonicum [21] = assay: Anti-schistosomal activity against male adult Schistosoma japonicum assessed as disruption of tegument spines on the oral suckers at 25 uM measured for 72 hrs by SEM analysis; type: functional, organism-based
# [22] = Toxicity in ICR mouse infected with Schistosoma japonicum assessed as serum BUN level at 25 mg/kg, ip administered for 7 days; type: organism-based; conditions: in vivo, 168 h, time 7 day
# Schistosoma japonicum [23] = assay: Anti-schistosomal activity against adult Schistosoma japonicum assessed as reduction in oviposition at 50 uM incubated for 72 hrs by optical microscopic analysis; type: functional, organism-based
# Schistosoma japonicum [24] = assay: Anti-schistosomal activity against adult Schistosoma japonicum measured at 72 hrs; type: functional, organism-based
# Schistosoma japonicum [25] = assay: Anti-schistosomal activity against adult Schistosoma japonicum assessed as worm mortality at 100 uM measured at 72 hrs relative to control; type: functional
# Schistosoma japonicum [26] = assay: Anti-schistosomal activity against adult Schistosoma japonicum assessed as worm mortality at 100 uM measured at 8 hrs relative to control; type: functional
# Schistosoma japonicum [27] = assay: Anti-schistosomal activity against adult Schistosoma japonicum assessed as mortality by measuring body twisting at 50 uM incubated for 1 to 72 hrs by optical microscopic analysis; type: functional, organism-based; conditions: time 1-72 hrs
# [28] = Acute toxicity in ICR mouse assessed as TBIL level at 1144 mg/kg, po administered for 7 days; type: organism-based; conditions: in vivo, 168 h, time 7 day
# Schistosoma japonicum [29] = assay: Anti-schistosomal activity against adult Schistosoma japonicum assessed as worm mortality at 100 uM measured at 12 hrs relative to control; type: functional
# Schistosoma japonicum [30] = assay: Anti-schistosomal activity against male adult Schistosoma japonicum assessed as appearance of intact tegument surface at 25 uM measured for 72 hrs by SEM analysis; type: functional, organism-based
# Schistosoma japonicum [31] = assay: Anti-schistosomal activity against adult Schistosoma japonicum infected in ICR mouse assessed as number of worms at 25 mg/kg, ip administered for 7 days; type: functional; conditions: time 7 day
# Schistosoma japonicum [32] = assay: Anti-schistosomal activity against adult Schistosoma japonicum infected in ICR mouse assessed as reduction in worm burden at 25 mg/kg, ip administered for 7 days; type: functional; parameters: scale not given: the % may be the effect or the level left; conditions: time 7 day
# Schistosoma japonicum [33] = assay: Anti-schistosomal activity against juvenile Schistosoma japonicum infected in ICR mouse assessed as cellular vacuolization at 25 mg/kg, ip administered for 7 days; type: functional, organism-based; conditions: time 7.0 day
# Schistosoma japonicum [34] = assay: Anti-schistosomal activity against juvenile Schistosoma japonicum infected in ICR mouse assessed as number of worms at 25 mg/kg, ip administered for 7 days; type: functional; conditions: time 7 day
# Schistosoma japonicum [35] = assay: Anti-schistosomal activity against adult Schistosoma japonicum assessed as worm mortality at 100 uM measured at 48 hrs relative to control; type: functional
# Schistosoma japonicum [36] = assay: Anti-schistosomal activity against male adult Schistosoma japonicum assessed as appearance of parallel wrinkles at 25 uM measured for 72 hrs by SEM analysis; type: functional, organism-based
# Schistosoma japonicum [37] = assay: Anti-schistosomal activity against juvenile Schistosoma japonicum infected in ICR mouse assessed as somatic degeneration at 25 mg/kg, ip administered for 7 days; type: functional, organism-based; conditions: time 7.0 day
smiles,measurement,setting,value
CCOC(=O)/C=C1\S/C(=N\c2ccc(C(F)(F)F)cc2)N(CCCN2CCN(C)CC2)C1=O,Activity,Schistosoma japonicum [1],Active
same,mortality at 100 µM,Schistosoma japonicum [2],100%
same,Activity,Schistosoma japonicum [3],Active
same,mortality at 100 µM,Schistosoma japonicum [4],20%
same,Activity,Schistosoma japonicum [5],Active
same,Activity,[6],9.6 mM
same,Activity,Schistosoma japonicum [7],Active
same,Activity,Schistosoma japonicum [8],Active
same,Activity,Schistosoma japonicum [9],Active
same,Activity,Schistosoma japonicum [10],Active
same,Activity,[11],41 U/L
same,Activity,[12],Non-toxic
same,LD50,[13],1400 mg/kg
same,Activity,Schistosoma japonicum [14],26%
same,Activity,Schistosoma japonicum [15],Active
same,Activity,Schistosoma japonicum [16],Active
same,Activity,[17],142 U/L
same,Activity,Schistosoma japonicum [18],Active
same,Activity,Schistosoma japonicum [19],Active
same,Activity,Schistosoma japonicum [20],Active
same,Activity,Schistosoma japonicum [21],Active
same,Activity,[22],7.22 mM
same,Activity,Schistosoma japonicum [23],Active
same,IC50,Schistosoma japonicum [24],25.3 µM
same,mortality at 100 µM,Schistosoma japonicum [25],100%
same,mortality at 100 µM,Schistosoma japonicum [26],50%
same,Activity,Schistosoma japonicum [27],Active
same,Activity,[28],3.24 µM
same,mortality at 100 µM,Schistosoma japonicum [29],100%
same,Activity,Schistosoma japonicum [30],Active
same,Activity,Schistosoma japonicum [31],24%
same,Activity,Schistosoma japonicum [32],52%
same,Activity,Schistosoma japonicum [33],Active
same,Activity,Schistosoma japonicum [34],32%
same,mortality at 100 µM,Schistosoma japonicum [35],100%
same,Activity,Schistosoma japonicum [36],Active
O=C(C1CCCCC1)N1CC(=O)N2CCc3ccccc3C2C1 (stereo not given) [PRAZIQUANTEL],Activity,Schistosoma japonicum [1],Active
same,mortality at 100 µM,Schistosoma japonicum [2],100%
same,mortality at 100 µM,Schistosoma japonicum [4],100%
same,Activity,Schistosoma japonicum [5],Active
same,Activity,[6],7.93 mM
same,Activity,Schistosoma japonicum [9],Active
same,Activity,Schistosoma japonicum [10],Active
same,Activity,[11],57 U/L
same,Activity,Schistosoma japonicum [14],49%
same,Activity,[17],136 U/L
same,Activity,Schistosoma japonicum [18],Active
same,Activity,Schistosoma japonicum [20],Active
same,Activity,[22],22.1 mM
same,IC50,Schistosoma japonicum [24],43.8 µM
same,mortality at 100 µM,Schistosoma japonicum [25],100%
same,mortality at 100 µM,Schistosoma japonicum [26],100%
same,Activity,[28],3.76 µM
same,mortality at 100 µM,Schistosoma japonicum [29],100%
same,Activity,Schistosoma japonicum [30],Active
same,Activity,Schistosoma japonicum [31],7%
same,Activity,Schistosoma japonicum [32],86%
same,Activity,Schistosoma japonicum [34],22%
same,mortality at 100 µM,Schistosoma japonicum [35],100%
same,Activity,Schistosoma japonicum [37],Active
same,Activity,Schistosoma japonicum [36],Active
CCOC(=O)/C=C1\S/C(=N\c2ccccc2Cl)N(CCCN2CCN(C)CC2)C1=O,mortality at 100 µM,Schistosoma japonicum [2],100%
same,mortality at 100 µM,Schistosoma japonicum [4],10%
same,Activity,Schistosoma japonicum [14],30%
same,Activity,[22],7.9 mM
same,IC50,Schistosoma japonicum [24],30.4 µM
same,mortality at 100 µM,Schistosoma japonicum [25],100%
same,mortality at 100 µM,Schistosoma japonicum [26],40%
same,mortality at 100 µM,Schistosoma japonicum [29],100%
same,Activity,Schistosoma japonicum [31],37%
same,Activity,Schistosoma japonicum [32],26%
same,Activity,Schistosoma japonicum [34],30%
same,mortality at 100 µM,Schistosoma japonicum [35],100%
CCOC(=O)/C=C1\S/C(=N\c2ccccc2)N(CCN2CCOCC2)C1=O,mortality at 100 µM,Schistosoma japonicum [2],0%
same,mortality at 100 µM,Schistosoma japonicum [4],0%
same,IC50,Schistosoma japonicum [24],93.1 µM
same,mortality at 100 µM,Schistosoma japonicum [25],60%
same,mortality at 100 µM,Schistosoma japonicum [26],0%
same,mortality at 100 µM,Schistosoma japonicum [29],0%
same,mortality at 100 µM,Schistosoma japonicum [35],40%
CCOC(=O)/C=C1\S/C(=N\c2cc(C(F)(F)F)cc(C(F)(F)F)c2)N(CCCN2CCN(C)CC2)C1=O,mortality at 100 µM,Schistosoma japonicum [2],100%
same,mortality at 100 µM,Schistosoma japonicum [4],0%
same,IC50,Schistosoma japonicum [24],36.4 µM
same,mortality at 100 µM,Schistosoma japonicum [25],100%
same,mortality at 100 µM,Schistosoma japonicum [26],40%
same,mortality at 100 µM,Schistosoma japonicum [29],100%
same,mortality at 100 µM,Schistosoma japonicum [35],100%
CCOC(=O)/C=C1\S/C(=N\c2ccc(F)cc2)N(CCCN2CCN(C)CC2)C1=O,mortality at 100 µM,Schistosoma japonicum [2],30%
same,mortality at 100 µM,Schistosoma japonicum [4],0%
same,IC50,Schistosoma japonicum [24],42.8 µM
same,mortality at 100 µM,Schistosoma japonicum [25],100%
same,mortality at 100 µM,Schistosoma japonicum [26],0%
same,mortality at 100 µM,Schistosoma japonicum [29],0%
same,mortality at 100 µM,Schistosoma japonicum [35],80%
CCOC(=O)/C=C1\S/C(=N\c2ccccc2)N(CCCN2CCN(C)CC2)C1=O,mortality at 100 µM,Schistosoma japonicum [2],10%
same,mortality at 100 µM,Schistosoma japonicum [4],0%
same,IC50,Schistosoma japonicum [24],75.6 µM
same,mortality at 100 µM,Schistosoma japonicum [25],100%
same,mortality at 100 µM,Schistosoma japonicum [26],0%
same,mortality at 100 µM,Schistosoma japonicum [29],0%
same,mortality at 100 µM,Schistosoma japonicum [35],100%
CCOC(=O)/C=C1\S/C(=N\c2ccc(Cl)c(Cl)c2)N(CCCN2CCN(C)CC2)C1=O,mortality at 100 µM,Schistosoma japonicum [2],100%
same,mortality at 100 µM,Schistosoma japonicum [4],0%
same,IC50,Schistosoma japonicum [24],39.3 µM
same,mortality at 100 µM,Schistosoma japonicum [25],100%
same,mortality at 100 µM,Schistosoma japonicum [26],40%
same,mortality at 100 µM,Schistosoma japonicum [29],100%
same,mortality at 100 µM,Schistosoma japonicum [35],100%
CCOC(=O)/C=C1\S/C(=N\c2ccccc2)N(CCCN2CCOCC2)C1=O,mortality at 100 µM,Schistosoma japonicum [2],0%
same,mortality at 100 µM,Schistosoma japonicum [4],0%
same,IC50,Schistosoma japonicum [24],91.3 µM
same,mortality at 100 µM,Schistosoma japonicum [25],100%
same,mortality at 100 µM,Schistosoma japonicum [26],0%
same,mortality at 100 µM,Schistosoma japonicum [29],0%
same,mortality at 100 µM,Schistosoma japonicum [35],0%
